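These data come from cells grown in 96-well plates and exposed to compound for 48 hours at five concentrations. The concentration for 50% growth inhibition is given as GI50. TGI is the concentration that stops growth completely.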
Key:
Assay in all cases: DTP human tumour cell line panel, 48 h
BT-549 breast = tested on: BT-549 breast
DU-145 prostate = tested on: DU-145 prostate
SF-539 CNS = tested on: SF-539 CNS
T-47D breast = tested on: T-47D breast
SR leukemia = tested on: SR leukemia
SN12C renal = tested on: SN12C renal
RXF 393 renal = tested on: RXF 393 renal
A498 renal = tested on: A498 renal
SK-MEL-28 melanoma = tested on: SK-MEL-28 melanoma
MOLT-4 leukemia = tested on: MOLT-4 leukemia
CAKI-1 renal = tested on: CAKI-1 renal
OVCAR-8 ovarian = tested on: OVCAR-8 ovarian
CCRF-CEM leukemia = tested on: CCRF-CEM leukemia
HOP-92 NSCLC = tested on: HOP-92 NSCLC
SK-MEL-5 melanoma = tested on: SK-MEL-5 melanoma
HT29 colon = tested on: HT29 colon
SF-268 CNS = tested on: SF-268 CNS
LOX IMVI melanoma = tested on: LOX IMVI melanoma
RPMI-8226 leukemia = tested on: RPMI-8226 leukemia
SNB-19 CNS = tested on: SNB-19 CNS
SNB-75 CNS = tested on: SNB-75 CNS
HCT-15 colon = tested on: HCT-15 colon
UACC-257 melanoma = tested on: UACC-257 melanoma
MALME-3M melanoma = tested on: MALME-3M melanoma
ACHN renal = tested on: ACHN renal
M14 melanoma = tested on: M14 melanoma
KM12 colon = tested on: KM12 colon
SK-OV-3 ovarian = tested on: SK-OV-3 ovarian
NCI-H23 lung = tested on: NCI-H23 lung
PC-3 prostate = tested on: PC-3 prostate
OVCAR-3 ovarian = tested on: OVCAR-3 ovarian
MCF7 breast = tested on: MCF7 breast
SF-295 CNS = tested on: SF-295 CNS
HCC-2998 colon = tested on: HCC-2998 colon
K-562 leukemia = tested on: K-562 leukemia
NCI-H226 lung = tested on: NCI-H226 lung
HCT-116 colon = tested on: HCT-116 colon
NCI/ADR-RES ovarian = tested on: NCI/ADR-RES ovarian
UACC-62 melanoma = tested on: UACC-62 melanoma
U251 CNS = tested on: U251 CNS
HOP-62 NSCLC = tested on: HOP-62 NSCLC
MDA-MB-231 breast = tested on: MDA-MB-231 breast
UO-31 renal = tested on: UO-31 renal
COLO 205 colon = tested on: COLO 205 colon
HL-60(TB) leukemia = tested on: HL-60(TB) leukemia
786-0 renal = tested on: 786-0 renal
SK-MEL-2 melanoma = tested on: SK-MEL-2 melanoma
NCI-H460 lung = tested on: NCI-H460 lung
SW-620 colon = tested on: SW-620 colon
TK-10 renal = tested on: TK-10 renal
OVCAR-4 ovarian = tested on: OVCAR-4 ovarian
IGROV1 ovarian = tested on: IGROV1 ovarian
A549 NSCLC = tested on: A549 NSCLC
HS 578T breast = tested on: HS 578T breast
NCI-H522 lung = tested on: NCI-H522 lung
OVCAR-5 ovarian = tested on: OVCAR-5 ovarian
EKVX NSCLC = tested on: EKVX NSCLC
MDA-MB-435 = tested on: MDA-MB-435

## Cn1cc(C2=C(c3cn(C)c4cc(C(N)=O)ccc34)C(=O)NC2=O)c2ccccc21
BT-549 breast
  GI50: 7.92 µM
  TGI: > 25 µM
DU-145 prostate
  GI50: 0.987 µM
  TGI: > 10.2 µM
SF-539 CNS
  GI50: 0.791 µM
  TGI: 4.24 µM
T-47D breast
  GI50: 1.98 µM
  TGI: > 25 µM
SR leukemia
  GI50: 0.656 µM
  TGI: > 22.8 µM
SN12C renal
  GI50: 1.91 µM
  TGI: 13.8 µM
RXF 393 renal
  GI50: 0.559 µM
  TGI: 1.95 µM
A498 renal
  GI50: 0.47 µM
  TGI: 2.06 µM
SK-MEL-28 melanoma
  GI50: 2.66 µM
  TGI: > 25 µM
MOLT-4 leukemia
  GI50: 1.83 µM
  TGI: > 20.9 µM
CAKI-1 renal
  GI50: 0.831 µM
  TGI: 10.7 µM
OVCAR-8 ovarian
  GI50: 1.67 µM
  TGI: > 25 µM
CCRF-CEM leukemia
  GI50: 0.951 µM
  TGI: > 25 µM
HOP-92 NSCLC
  GI50: 2.15 µM
  TGI: 24.5 µM
SK-MEL-5 melanoma
  GI50: 0.751 µM
  TGI: 3.39 µM
HT29 colon
  GI50: 0.924 µM
  TGI: > 13.5 µM
SF-268 CNS
  GI50: 1.74 µM
  TGI: > 18.3 µM
LOX IMVI melanoma
  GI50: 1.76 µM
  TGI: > 25 µM
RPMI-8226 leukemia
  GI50: 1.65 µM
  TGI: > 20.8 µM
SNB-19 CNS
  GI50: 2.15 µM
  TGI: > 25 µM
SNB-75 CNS
  GI50: 0.447 µM
  TGI: > 7.9 µM
HCT-15 colon
  GI50: 1.19 µM
  TGI: > 25 µM
UACC-257 melanoma
  GI50: 3.66 µM
  TGI: > 25 µM
MALME-3M melanoma
  GI50: 4.2 µM
  TGI: > 25 µM
ACHN renal
  GI50: 2.64 µM
  TGI: > 25 µM
M14 melanoma
  GI50: 1.08 µM
  TGI: > 25 µM
KM12 colon
  GI50: 1.02 µM
  TGI: 6.17 µM
SK-OV-3 ovarian
  GI50: 1.44 µM
  TGI: > 22.2 µM
NCI-H23 lung
  GI50: 1.35 µM
  TGI: > 25 µM
PC-3 prostate
  GI50: 0.909 µM
  TGI: > 25 µM
OVCAR-3 ovarian
  GI50: 0.608 µM
  TGI: 1.57 µM
MCF7 breast
  GI50: 0.949 µM
  TGI: > 25 µM
SF-295 CNS
  GI50: 0.987 µM
  TGI: > 25 µM
HCC-2998 colon
  GI50: 5.17 µM
  TGI: > 25 µM
K-562 leukemia
  GI50: 0.857 µM
  TGI: > 25 µM
NCI-H226 lung
  GI50: 4.29 µM
  TGI: > 21.7 µM
HCT-116 colon
  GI50: 1.08 µM
  TGI: > 21.6 µM
NCI/ADR-RES ovarian
  GI50: 1.16 µM
  TGI: > 25 µM
UACC-62 melanoma
  GI50: 2.31 µM
  TGI: > 16.8 µM
U251 CNS
  GI50: 1.04 µM
  TGI: > 25 µM
HOP-62 NSCLC
  GI50: 1.67 µM
  TGI: > 25 µM
MDA-MB-231 breast
  GI50: 2.88 µM
  TGI: 19.9 µM
UO-31 renal
  GI50: 1.81 µM
  TGI: > 20.1 µM
COLO 205 colon
  GI50: 0.914 µM
  TGI: 6.08 µM
HL-60(TB) leukemia
  GI50: 0.769 µM
  TGI: 3.48 µM
786-0 renal
  GI50: 1.81 µM
  TGI: 13.7 µM
SK-MEL-2 melanoma
  GI50: 1.44 µM
  TGI: > 16.1 µM
NCI-H460 lung
  GI50: 0.854 µM
  TGI: > 9.8 µM
SW-620 colon
  GI50: 1.27 µM
  TGI: > 25 µM
TK-10 renal
  GI50: 3.76 µM
  TGI: > 21 µM
OVCAR-4 ovarian
  GI50: 4.91 µM
  TGI: > 25 µM
IGROV1 ovarian
  GI50: 2.48 µM
  TGI: > 19.7 µM
A549 NSCLC
  GI50: 1.66 µM
  TGI: > 25 µM
HS 578T breast
  GI50: 0.687 µM
  TGI: 4.02 µM
NCI-H522 lung
  GI50: 0.471 µM
  TGI: 3.2 µM
OVCAR-5 ovarian
  GI50: 11.1 µM
  TGI: > 25 µM

## CC(C)=CCc1cc(O)cc2c1OC(C=C(C)C)C1=C2C(=O)C2=C(NCCS2(=O)=O)C1=O (stereo not given)
BT-549 breast
  GI50: 2.87 µM
  TGI: 5.23 µM
DU-145 prostate
  GI50: 2.18 µM
  TGI: 4.31 µM
SF-539 CNS
  GI50: 2.58 µM
  TGI: 4.82 µM
T-47D breast
  GI50: 3.32 µM
  TGI: 14.1 µM
SN12C renal
  GI50: 0.414 µM
  TGI: 2.02 µM
RXF 393 renal
  GI50: 2.15 µM
  TGI: 4.7 µM
A498 renal
  GI50: 2.94 µM
  TGI: 5.47 µM
SK-MEL-28 melanoma
  GI50: 2.39 µM
  TGI: 5.13 µM
MOLT-4 leukemia
  GI50: 2.23 µM
  TGI: 7.19 µM
OVCAR-8 ovarian
  GI50: 3.24 µM
  TGI: 8.71 µM
CCRF-CEM leukemia
  GI50: 4.05 µM
  TGI: > 16.7 µM
HOP-92 NSCLC
  GI50: 5.73 µM
  TGI: 15.9 µM
SK-MEL-5 melanoma
  GI50: 0.751 µM
  TGI: 2.88 µM
HT29 colon
  GI50: 1.95 µM
  TGI: 7.24 µM
SF-268 CNS
  GI50: 2.34 µM
  TGI: 8.2 µM
LOX IMVI melanoma
  GI50: 2.04 µM
  TGI: 5 µM
RPMI-8226 leukemia
  GI50: 4.42 µM
  TGI: 14 µM
SNB-19 CNS
  GI50: 2.25 µM
  TGI: 4.44 µM
SNB-75 CNS
  GI50: 2.53 µM
  TGI: 4.86 µM
HCT-15 colon
  GI50: 2.74 µM
  TGI: 6.46 µM
UACC-257 melanoma
  GI50: 2.3 µM
  TGI: 4.61 µM
MALME-3M melanoma
  GI50: 0.159 µM
  TGI: 0.834 µM
ACHN renal
  GI50: 3.18 µM
  TGI: 10.6 µM
M14 melanoma
  GI50: 0.646 µM
  TGI: 2.69 µM
KM12 colon
  GI50: 4.29 µM
  TGI: > 16.7 µM
SK-OV-3 ovarian
  GI50: 3.8 µM
  TGI: 10.4 µM
NCI-H23 lung
  GI50: 1.91 µM
  TGI: 6.53 µM
PC-3 prostate
  GI50: 4.14 µM
  TGI: > 16.7 µM
OVCAR-3 ovarian
  GI50: 0.456 µM
  TGI: 2.01 µM
EKVX NSCLC
  GI50: 2.73 µM
  TGI: 9.57 µM
MCF7 breast
  GI50: 1.21 µM
  TGI: 4.92 µM
HCC-2998 colon
  GI50: 2.63 µM
  TGI: 5.19 µM
K-562 leukemia
  GI50: 3.07 µM
  TGI: 14.6 µM
NCI-H226 lung
  GI50: 2.06 µM
  TGI: 5.34 µM
HCT-116 colon
  GI50: 0.611 µM
  TGI: 2.45 µM
NCI/ADR-RES ovarian
  GI50: > 16.7 µM
  TGI: > 16.7 µM
UACC-62 melanoma
  GI50: 0.875 µM
  TGI: 3.5 µM
U251 CNS
  GI50: 2.79 µM
  TGI: 5.25 µM
HOP-62 NSCLC
  GI50: 3.01 µM
  TGI: 5.94 µM
MDA-MB-231 breast
  GI50: 0.527 µM
  TGI: 5.09 µM
UO-31 renal
  GI50: 2.03 µM
  TGI: 6.05 µM
COLO 205 colon
  GI50: 2.67 µM
  TGI: 5.57 µM
786-0 renal
  GI50: 2.93 µM
  TGI: 7.11 µM
SK-MEL-2 melanoma
  GI50: 2.85 µM
  TGI: 7.13 µM
NCI-H460 lung
  GI50: 1.2 µM
  TGI: 4.28 µM
SW-620 colon
  GI50: 2.32 µM
  TGI: 5.78 µM
TK-10 renal
  GI50: 5.51 µM
  TGI: 16.2 µM
OVCAR-4 ovarian
  GI50: 0.811 µM
  TGI: 3.06 µM
IGROV1 ovarian
  GI50: 2.15 µM
  TGI: 5.43 µM
MDA-MB-435
  GI50: 0.315 µM
  TGI: 0.634 µM
A549 NSCLC
  GI50: 3.17 µM
  TGI: 6.83 µM
HS 578T breast
  GI50: 3.48 µM
  TGI: 11.9 µM
NCI-H522 lung
  GI50: 2.64 µM
  TGI: 7.41 µM
OVCAR-5 ovarian
  GI50: 3.72 µM
  TGI: 7.01 µM
